# Reference: paper PMC7725443 (Advanced healthcare materials, 2020)
# System: OVSAHO cells
# Assay: Cell viability of OVSAHO cells
# Type: cell-based, human
# Details: 50 nM and 100 nM, 24 h
smiles,measurement,value
"CC(C)C[C@H](NC(=O)[C@H](Cc1ccccc1)NC(=O)c1cnccn1)B(O)O [BTZ, bortezomib]",cell viability of OVSAHO cells treated with solely BTZ,cell compatible
